Experimental data as given in ChEMBL document CHEMBL1130670, “Potent bicyclic lactam inhibitors of thrombin: Part I: P3 modifications” (Bioorg Med Chem Lett, 1998).

Columns and labels:
Prothrombin = Prothrombin (Homo sapiens, UniProt P00734); experiment: Binding affinity against thrombin
[1] = target: Prothrombin (Rattus norvegicus) (UniProt P18292)
Description: Compound was tested for the antithrombic effect in rat arterial thrombosis model and expressed as activated partial thromboplastin time(PTT)

[2] = target: Prothrombin (Rattus norvegicus) (UniProt P18292); remark: listed apart in the source
Description: Compound was tested for the antithrombic effect in rat arterial thrombosis model and expressed as mean occlusion time(MOT)

[3] = target: Prothrombin (Rattus norvegicus) (UniProt P18292); remark: listed apart in the source
Description: Compound was tested for the antithrombic effect in rat arterial thrombosis model and expressed as thrombin time(TT)
Wherever APTT is given: test concentration or dose not given here.
Wherever TT is given: test concentration or dose not given here.

| Compound | Ki (Prothrombin) [nM] | APTT [1] [s] | MOT [2] [min] | TT [3] [s] |
| --- | --- | --- | --- | --- |
| N=C(N)NCCCC(NC(=O)[C@@H]1CC[C@H]2CN(C(=O)CCc3ccc4ccccc4c3)CC(=O)N21)C(=O)c1nccs1 (some centres undefined) | 0.5 |  |  |  |
| N=C(N)NCCCC(NC(=O)[C@@H]1CC[C@H]2CN(C(=O)[C@@H](N)Cc3ccc(O)cc3)CC(=O)N21)C(=O)c1nccs1 (stereo in doubt; 31) | 160 |  |  |  |
| N=C(N)NCCCC(NC(=O)[C@@H]1CC[C@H]2CN(C(=O)CCc3ccccn3)CC(=O)N21)C(=O)c1nccs1 (some centres undefined) | 3 | 44.2 | 47.6 | 557 |
| N=C(N)NCCCC(NC(=O)[C@@H]1CC[C@H]2CN(C(=O)[C@@H](O)c3ccccc3)CC(=O)N21)C(=O)c1nccs1 (stereo in doubt; 28) | 84 |  |  |  |
| N=C(N)NCCCC(NC(=O)[C@@H]1CC[C@H]2CN(C(=O)[C@@H](O)Cc3ccccc3)CC(=O)N21)C(=O)c1nccs1 (some centres undefined) | 4.4 | 463 | > 60 | 679 |
| N=C(N)NCCCC(NC(=O)[C@@H]1CC[C@H]2CN(C(=O)Cc3ccccc3)CC(=O)N21)C(=O)c1nccs1 (some centres undefined) | 2.5 | 79.2 | > 60 | 387 |
| N=C(N)NCCCC(NC(=O)[C@@H]1CC[C@H]2CN(C(=O)CCc3ccccc3F)CC(=O)N21)C(=O)c1nccs1 (some centres undefined) | 0.92 |  |  |  |
| N=C(N)NCCCC(NC(=O)[C@@H]1CC[C@H]2CN(C(=O)CCc3ccccc3)CC(=O)N21)C(=O)c1nccs1 (some centres undefined) |  | 44.3 | 42.2 | 381 |
| N=C(N)NCCCC(NC(=O)[C@@H]1CC[C@H]2CN(C(=O)CCc3cccc4ccccc34)CC(=O)N21)C(=O)c1nccs1 (some centres undefined) | 0.35 | 217 | 33.2 | > 600 |
| N=C(N)NCCCC(NC(=O)[C@@H]1CC[C@H]2CN(C(=O)CCc3ccccc3C(F)(F)F)CC(=O)N21)C(=O)c1nccs1 (some centres undefined) | 0.5 | 90 | > 60 | > 999 |
| N=C(N)NCCCC(NC(=O)[C@@H]1CC[C@H]2CN(C(=O)CCOc3ccccc3)CC(=O)N21)C(=O)c1nccs1 (some centres undefined) | 5 | 45.2 | 47.7 | 276 |
| N=C(N)NCCCC(NC(=O)[C@@H]1CC[C@H]2CN(C(=O)CCc3ccc(Cl)c(Cl)c3)CC(=O)N21)C(=O)c1nccs1 (some centres undefined) | 0.106 |  |  |  |
| N=C(N)NCCCC(NC(=O)[C@@H]1CC[C@H]2CN(C(=O)CCC3CCCCC3)CC(=O)N21)C(=O)c1nccs1 (some centres undefined) | 24 | 52.4 | 25.4 | 320 |
| NC(N)=NCCCC(NC(=O)[C@@H]1CC[C@H]2CN(C(=O)[C@@H](N)Cc3c[nH]c4ccccc34)CC(=O)N21)C(=O)c1nccs1 (stereo in doubt; 34) [listing 1 of 2 here] |  | 188 | > 60 | 929 |
| N=C(N)NCCCC(NC(=O)[C@@H]1CC[C@H]2CN(C(=O)C3Cc4ccccc4CN3)CC(=O)N21)C(=O)c1nccs1 (some centres undefined) | 32 |  |  |  |
| N=C(N)NCCCC(NC(=O)[C@@H]1CC[C@H]2CN(C(=O)COc3ccccc3)CC(=O)N21)C(=O)c1nccs1 (some centres undefined) | 16 | 31.5 | 37.8 | 248 |
| NC(N)=NCCCC(NC(=O)[C@@H]1CC[C@H]2CN(C(=O)[C@@H](N)Cc3ccc(O)cc3)CC(=O)N21)C(=O)c1nccs1 (stereo in doubt; 32) |  | 76 | 53 | 433 |
| N=C(N)NCCCC(NC(=O)[C@@H]1CC[C@H]2CN(C(=O)CCCc3ccccc3)CC(=O)N21)C(=O)c1nccs1 (some centres undefined) | 1.2 | 120 | > 60 | 494 |
| NC(N)=NCCCC(NC(=O)[C@@H]1CC[C@H]2CN(C(=O)[C@@H](N)Cc3c[nH]c4ccccc34)CC(=O)N21)C(=O)c1nccs1 (stereo in doubt; 34) [listing 2 of 2 here] | 0.96 |  |  |  |
| NC(N)=NCCCC(NC(=O)[C@@H]1CC[C@H]2CN(C(=O)[C@@H](N)Cc3ccc(F)cc3)CC(=O)N21)C(=O)c1nccs1 (some centres undefined) | 3 | 44.2 | 47.7 | 557 |
| N=C(N)NCCCC(NC(=O)[C@@H]1CC[C@H]2CN(C(=O)[C@@H](O)c3ccccc3)CC(=O)N21)C(=O)c1nccs1 (stereo in doubt; 29) [listing 1 of 2 here] |  | 49.1 | > 60 | 476 |
| N=C(N)NCCCC(NC(=O)[C@@H]1CC[C@H]2CN(C(=O)NCc3ccccc3)CC(=O)N21)C(=O)c1nccs1 (some centres undefined) | 58 |  |  |  |
| N=C(N)NCCCC(NC(=O)[C@@H]1CC[C@H]2CN(C(=O)[C@@H](N)Cc3ccc(O)cc3)CC(=O)N21)C(=O)c1nccs1 (stereo in doubt; 32) | 18 |  |  |  |
| N=C(N)NCCCC(NC(=O)[C@@H]1CC[C@H]2CN(C(=O)c3ccccc3)CC(=O)N21)C(=O)c1nccs1 (some centres undefined) |  | 25.5 | 45.8 | 144 |
| NC(N)=NCCCC(NC(=O)[C@@H]1CC[C@H]2CN(C(=O)[C@@H](N)Cc3c[nH]c4ccccc34)CC(=O)N21)C(=O)c1nccs1 (stereo in doubt; 33) | 75.3 |  |  |  |
| N=C(N)NCCCC(NC(=O)[C@@H]1CC[C@H]2CN(CCCc3ccccc3)CC(=O)N21)C(=O)c1nccs1 (some centres undefined) | 17 | 30.5 | 28.3 | 122 |
| COc1ccc(CCC(=O)N2CC(=O)N3[C@@H](CC[C@H]3C(=O)NC(CCCN=C(N)N)C(=O)c3nccs3)C2)cc1 (some centres undefined) | 0.5 | 55.2 | > 60 | 633 |
| N=C(N)NCCCC(NC(=O)[C@@H]1CC[C@H]2CN(C(=O)[C@@H](O)c3ccccc3)CC(=O)N21)C(=O)c1nccs1 (stereo in doubt; 29) [listing 2 of 2 here] | 16 |  |  |  |
| N=C(N)NCCCC(NC(=O)[C@@H]1CC[C@H]2CN(C(=O)OCc3ccccc3)CC(=O)N21)C(=O)c1nccs1 (some centres undefined) | 50 |  |  |  |
| Cc1ccc(CCC(=O)N2CC(=O)N3[C@@H](CC[C@H]3C(=O)NC(CCCN=C(N)N)C(=O)c3nccs3)C2)cc1 (some centres undefined) | 0.5 | 88 | > 60 | > 999 |
